Results as given in patent US12441693B2, “Targeting STAT sumoylation to enhance immune responses” (THE GEORGE WASHINGTON UNIVERSITY, priority 2018, dated 2025).

Tests used:
STAT5, STAT1, STAT3 = experiment: Western blot of phosphorylated STATs in NK cells; assay type: cell-based, human
Experimental: Next, NK cells were cultured with IL-15 in the presence or absence of HODHBt and levels of phosphorylated STATs were measured by Western blot.
(§1) In general, samples are prepared and loaded on to a gel and during the electrophoresis the negatively charged proteins move toward the positively charged anode. In order to further analyze the proteins, they are transferred onto a membrane in a procedure called blotting. After the transfer, the membrane is blocked in order to prevent unwanted membrane-protein interaction in the following steps. To visualize the protein of interest the membrane is commonly first probed using a primary protein-specific antibody followed by a labeled secondary antibody used for detection. An image is taken of the membrane and the result is analyzed.

STAT5 [1] = conditions: Bosque et al., Cell Rep. 2017; cited from earlier work
NK cells = experiment: In vitro expansion of NK cells with IL-2; assay type: cell-based, human; conditions: 500 IU/ml of IL-2, two HIV-negative donors
Text: As for CD8 T cells, STATS play an important role in the expansion of NK cells. As such, it was hypothesized that inhibiting STAT SUMOylation may enhance the expansion of NK cells. This has important implications for adoptive cell immunotherapies as NK cells are increasingly becoming an attractive alternative to T cell therapies. In order to address whether inhibiting STAT SUMOylation may enhance NK proliferation in vitro, NK cells were isolated from two human HIV-negative donors and expanded using Miltenyi Biotec NK MACS Medium in the presence of 500 IU/ml of IL-2 and in the presence or absence of HODHBt.

Granzyme B, TRAIL = experiment: Expression of cytotoxic molecules (Gzm B, TRAIL) in CD8 and CD4 T cells; assay type: cell-based, human
STAT5 [2] = target: T1, STAT5 (Homo sapiens, UniProt P42229); experiment: Cellular thermal shift assay (CETSA) in 293FT-STAT5A cell lysates; assay type: binding
T1 construct: expressed in transfected cells; host or cells: 293FT HEK cells expressing STAT5A (293FT-STAT5A)
T1 sequence (P42229 1-794): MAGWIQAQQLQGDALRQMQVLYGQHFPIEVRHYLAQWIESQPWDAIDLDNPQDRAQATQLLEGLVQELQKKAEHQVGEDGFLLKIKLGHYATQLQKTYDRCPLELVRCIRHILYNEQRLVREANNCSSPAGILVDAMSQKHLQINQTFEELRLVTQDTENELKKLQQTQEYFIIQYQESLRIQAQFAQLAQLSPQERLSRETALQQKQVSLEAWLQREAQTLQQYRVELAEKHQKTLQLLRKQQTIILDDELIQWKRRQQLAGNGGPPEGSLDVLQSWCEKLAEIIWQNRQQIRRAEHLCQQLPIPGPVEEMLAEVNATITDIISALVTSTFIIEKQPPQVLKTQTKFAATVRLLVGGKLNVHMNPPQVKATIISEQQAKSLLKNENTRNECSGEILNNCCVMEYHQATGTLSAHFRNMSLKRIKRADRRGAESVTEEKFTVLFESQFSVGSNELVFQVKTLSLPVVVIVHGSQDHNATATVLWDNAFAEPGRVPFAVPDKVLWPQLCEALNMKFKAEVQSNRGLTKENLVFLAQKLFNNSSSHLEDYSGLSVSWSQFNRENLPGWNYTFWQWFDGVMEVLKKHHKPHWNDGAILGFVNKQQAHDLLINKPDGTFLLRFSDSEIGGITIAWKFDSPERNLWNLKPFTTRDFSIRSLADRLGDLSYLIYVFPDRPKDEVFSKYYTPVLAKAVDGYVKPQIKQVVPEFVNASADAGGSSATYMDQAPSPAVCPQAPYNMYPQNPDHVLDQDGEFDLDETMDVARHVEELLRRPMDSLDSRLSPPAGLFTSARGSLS
Text: To evaluate whether HODHBt and its analogs were directly binding to STAT5, a recently developed assay, cellular thermal shift assay (CETSA), was used. CETSA is based on the biophysical principle of ligand-induced changes in thermal stability of target proteins. As detailed in Molina & Nordlund, ANNU RE[…]. 2016; 56:141-61, the disclosure of which is hereby incorporated by reference in its entirety, the CETSA assay has been extensively used to identify drug targets using lysates, cells and tissues (FIG. 7A). After heating at different temperatures, the soluble fractions are analyzed for changes in the levels of the target protein (FIG. 7B). Binding of the compound can change the temperature at which the protein is denaturalized (FIG. 7C) leading to a change in the thermal melting curve (FIG. 7D).
First, it was addressed whether HODHBt induced a thermal shift of STAT5 using cell lysates from 293FT-STAT5A. In this assay, high drug concentrations were used to perform CETSA in cell lysates (10,000-20,000 times the IC50). […] Briefly, cell lysates were incubated with either DMSO or HODHBt for 30 minutes at 25° C. After incubation, lysates were heated from 40° C. to 75° C. in 5 degrees intervals and the insoluble fractions were eliminated by centrifugation. […]

STAT1, STAT5, Mx1 = experiment: Western blot of primary CD4 T cells (pSTAT1, pSTAT5, Mx1); assay type: cell-based, human; conditions: increased concentrations
Experimental: as §1

CD4 T cells = experiment: Expansion of activated CD4 T cells with IL-2; assay type: cell-based, human; conditions: activated in vitro, IL-2, vs DMSO
Text: For these tests, human CD4 and CD8 T cells were activated in vitro and expanded with interleukin-2 (IL-2) in the presence of DMSO (control vehicle) or HODHBt.

In the case of `O=c1c2ccccc2nnn1O` [HODHBt], the “phosphorylation of STAT1 in NK cells” value (STAT5, STAT1, STAT3; HODHBt alone) is reported as “increased the phosphorylation levels of STAT1”, the “phosphorylation of STAT5 in NK cells” value (STAT5, STAT1, STAT3; after IL-15 treatment) is reported as “increased the levels of phosphorylation of STAT5 after IL-15 treatment” and the “phosphorylation of STAT1 and STAT3 in NK cells” value (STAT5, STAT1, STAT3; with IL-15, vs IL-15) is reported as “enhanced the levels of phosphorylation of STAT1 and STAT3 induced by IL-15”. For the same compound, the “phosphorylation and transcriptional activity of STAT5” value (STAT5 [1]) was “enhance phosphorylation and the transcriptional activity of STAT5”, the NK cell expansion (NK cells) was “enhanced NK cell expansion in vitro” and the “levels of Gzm B in CD8 T cells” value (Granzyme B, TRAIL) was “increased the levels of Gzm B in CD8 T cells”. The “expression of Granzyme B in activated CD8 T cells” value (Granzyme B, TRAIL; cultured for three days) was “increased the levels of expression”, the “expression of TRAIL in activated CD8 T cells” value (Granzyme B, TRAIL; cultured for three days) was “increased the levels of expression” and the “high molecular band generated (size of STAT5 dimer)” value (STAT5 [2]; lysates incubated with HODHBt, Western blot) was “approximately 188 kDa”. The “thermal melting curve of STAT5” value (STAT5 [2]; lysates, 5 mM, 30 minutes at 25° C, heated 40-75° C) was “drastically changed the thermal melting curve of STAT5, promoting its degradation”, the “levels of myxovirus resistance 1 (Mx1)” value (STAT1, STAT5, Mx1) was “increased the levels” and the “levels of phosphorylated STAT1 and STAT5” value (STAT1, STAT5, Mx1) was “increased the levels of phosphorylated STAT1 and STAT5”. The “expansion of CD4 T cells” value (CD4 T cells) was “increased expansion”.
